What was measured:
Assay type in all cases: physicochemical
[1] = F3 block stability study in sodium stearate aqueous gel (GC-MS); settings: after 3 months
Protocol: Aqueous sodium stearate gel is a method used by SIGNS for several of the pheromones it markets (pork, poultry, rabbit). The sodium stearate matrix is cast at high temperature (60° C.) and contains 2% pheromone. In this study, matrix samples are taken by coring, and the active ingredients are extracted by apolar solvent, using the SIGNS-validated quality control method. Extracts are analyzed by GC-MS. […] Given this observation, formula F3 cannot be used in blocks for passive diffusion, so a change of galenic formulation is necessary.

[2] = F3P PCDS direct diffusion (SPME GC/MS); settings: 40 mL, 6 capillaries
Protocol: For this study, three diffusers each containing 40 mL of product and 6 capillaries were prepared and diffused. Every Monday, Wednesday and Friday, pheromone diffusion in the air was monitored by GC/MS and SPME (Solid Phase Micro Extraction) until no liquid remained.
Experimentally, the device studied was placed in a closed space (in our case an upturned aquarium) containing the SPME fiber. The set-up si the same as the set-up shown in Section D/above and in FIG. 24. The SPME fiber was left for 2 hours to give the molecules time to absorb onto the fiber, then the fiber was injected into the GC/MS instrument for analysis. Pheromone diffusion over time was then studied.
Same elements as in Section E/V. C. are reproduced in this section.

[3] = F3 sticks device, direct diffusion, 40 mL and four sticks (SPME GC/MS); settings: four sticks
Protocol: Three devices containing 40 mL of F3 feline facial pheromone product and four rattan sticks were prepared and left on diffusion. Every Monday, Wednesday and Friday, the diffusion of the pheromone in air was checked by analysis by gas chromatography coupled with mass spectrometer (GC/MS) and SPME (solid phase microextraction) until there is no liquid left (about 22 days).
To that purpose, the studied device was taken and placed into a closed space (in our case an aquarium turned over) containing the SPME fiber as shown on FIG. 24.
The SPME fiber was left for two hours to give the time for the molecules to adsorb on the fiber, then the fiber was injected into the GC/MS instrument for analysis.
Analysis were carried out using gas chromatography with mass spectrometer. The instrument was a GCMS QP2010SE® from Shimadzu with an AOC6000® Autosampler. The separation was performed on a ZB-5 MS® column (30 m×0.25 mm×0.25 μm, stationary phase: 95% Dimethylpolysiloxane, 5% Phenyl-Arylene) from Phenomenex. The GC oven temperature was initially held at 100° C. for 1 minute then increased at a pace of 10° C./min to 120° C. and left at this temperature for 3 minutes. Finally, the oven temperature was increased at a pace of 10° C./min to 240° C. and left at this temperature for 10 minutes. The carrier gas was helium at 1 mL/min. Analysis were performed in split mode using a split/splitless injector (Temperature: 250° C., split: 1:20). The SPME fiber was directly injected into the injector and left for 30 minutes. Separated molecules were detected using a mass spectrometer which was operated in electron impact ionization (EI) in both full scan (FS) and single ion monitoring (SIM) modes, so called FASST (Fast Automated SCAN/SIM type) mode. The interface temperature was set at 300° C. and electron impact source temperature at 250° C. The analyser was a quadrupole.
For the measurement of the relative quantity of active ingredient spreading in air, the area of the chromatographic peak corresponding to the compound was measured using Shimadzu GCMS-Solution software.

[4] = Ratios of molecules diffused through the sticks over time
Protocol: Furthermore, as small molecules diffuse more, it happens that they lose intensity over the course of the study, so the ratios are different 24 hours after immersing the sticks in the liquid and 21 days later. Here are the ratios for each pheromone studied at the start of the study and at the end.

[5] = Indirect assay of diffuser blocks (GC/FID, pheromone remaining in the block); settings: despecified pheromone
Protocol: Analyses were carried out using the gas chromatography (GC) technique with a flame ionization detector (FID), commonly known as GC/FID. The instrument used was the Shimadzu GC2025.® • Injection: Quantity injected: 1 μL, split 50:1, temperature: 230° C. • Separation: DB-WAX column (Agilent), length: 20 m, diameter: 180 μm, film thickness: […] • Carrier gas: Helium (He) • Analysis time: 11.50 min (not including time to return to equilibrium between each analysis) injection). • Detection: FID, temperature: 250° C., flow rates: H2: 40 mL/min, Air: 400 mL/min, Nitrogen (make-up): 30 mL/min. To obtain a representative sample, “cores” were drilled at various positions in the block and then collected. 2.5 g of gel were weighed into a 50 mL volumetric flask and the volume made up to the beginning of the neck of the flask with acetone. The flask was then placed in an ultrasonic bath for one hour until the block was dissolved (a white precipitate was obtained), then acetone was added to the mark. An aliquot of this solution was placed in a syringe fitted with a syringe filter and filtered to obtain a translucent solution. The resulting solution was transferred to a 1.5 mL GC vial for analysis. The assays were carried out using a calibration range.

[6] = Pheromone migrated to the stick tips (GC/FID); settings: on stick tips, despecified pheromone
Protocol: In the course of this study, we also measured the amount of pheromone migrating on the sticks, to check that the pheromone had migrated to the top of the sticks, helping it to diffuse into the air. To do this, the test is the same as for the diffuser blocks: 2.5 g of stick tips are cut off and placed in a 50 mL flask, which is then placed in an ultrasonic bath for one hour. The resulting solution is filtered (to avoid injecting particles into the instrument) and placed in a chromatographic vial for analysis.

[7] = DAP, 24 h after immersion of sticks
[8] = DAP, 21 days after immersion of sticks (empty tank)
[9] = Despecified pheromone (Core), 5 days after immersion of the sticks
[10] = Despecified pheromone (Core), 21 days after immersion of sticks (empty tank)
[11] = F3, 24 h after immersion of sticks
[12] = F3, 21 days after immersion of sticks (empty tank)
[13] = F3P, 24 h after immersion of the sticks
[14] = F3P, 21 days after immersion of sticks (empty tank)

Row | stability in the block [1] | direct diffusion over time [2] | ratio of molecules diffused through the sticks [4, 7] | ratio of molecules diffused through the sticks [4, 8] | ratio of molecules diffused through the sticks [4, 9] | ratio of molecules diffused through the sticks [4, 10] | ratio of molecules diffused through the sticks [4, 11] | ratio of molecules diffused through the sticks [4, 12] | ratio of molecules diffused through the sticks [4, 13] | ratio of molecules diffused through the sticks [4, 14] | % of the active ingredient in the pheromone ([5]; day 0) [%] | % of the active ingredient in the pheromone ([5]; day 7) [%] | % of the active ingredient in the pheromone ([5]; day 14) [%] | % of the active ingredient in the pheromone ([5]; day 21) [%] | % of the active ingredient in the pheromone ([5]; day 28) [%] | % of the active ingredient in the pheromone ([6]; day 7) [%] | % of the active ingredient in the pheromone ([6]; day 14) [%] | % of the active ingredient in the pheromone ([6]; day 21) [%] | SMILES | direct diffusion over time [3]
1 | remained stable | increased over time | 2 % (w/w) | 3.5 % (w/w) | 3 % (w/w) | 4 % (w/w) | 2 % (w/w) | 4 % (w/w) | 0.6 % (w/w) | 2 % (w/w) | 30.4 | 30.6 | 30.6 | 30.7 | 30.7 | 31.3 | 31.5 | 32.6 | CCCCCCCC/C=C\CCCCCCCC(=O)OC [methyl oleate, methyl (Z)-octadec-9-enoate] | slight increase of the diffusion over time
2 | remained stable | increased over time | 9.5 % (w/w) | 12 % (w/w) | 19 % (w/w) | 22 % (w/w) | 3 % (w/w) | 5 % (w/w) | 1 % (w/w) | 3.4 % (w/w) | 27.2 | 27.2 | 27.1 | 27.1 | 27.1 | 29.8 | 30.2 | 32.5 | CCCCCCCCCCCCCCCC(=O)OC [methyl palmitate, methyl hexadecanoate] | slight increase of the diffusion over time

— patent publication US20250248393A1, “METHOD OF RELEASING A SEMIOCHEMICAL IN THE ENVIRONEMENT BY PASSIVE DIFFUSION, SYSTEM AND MEANS, ESPECIALLY STICKS, TO THIS END, AND USES THEREOF” (SIGNS, priority 2024, published 2025)
